Measurements taken from ChEMBL document CHEMBL5154863, “Design and synthesis of quinolinium-based derivatives targeting FtsZ for antibacterial evaluation and mechanistic study” (Eur J Med Chem, 2022).
≈ marks a conversion by molar mass, not a printed value.

Columns and labels:
Type in all cases: functional
Conditions in all cases: time 20-24 hrs
[1] = system: Staphylococcus aureus; experiment: Antibacterial activity against vancomycin-intermediate Staphylococcus aureus Mu50 assessed as inhibition of bacterial growth incubated for 20 to 24 hrs by broth micro dilution method
[2] = system: Bacillus subtilis; experiment: Antibacterial activity against Bacillus subtilis CMCC (B) 63501 assessed as inhibition of bacterial growth incubated for 20 to 24 hrs by broth micro dilution method
[3] = system: Staphylococcus aureus; experiment: Antibacterial activity against methicillin-resistant Staphylococcus aureus ATCC BAA-1720 assessed as inhibition of bacterial growth incubated for 20 to 24 hrs by broth micro dilution method
[4] = system: Staphylococcus aureus; experiment: Antibacterial activity against methicillin-resistant Staphylococcus aureus ATCC 33592 assessed as inhibition of bacterial growth incubated for 20 to 24 hrs by broth micro dilution method
[5] = system: Escherichia coli; experiment: Antibacterial activity against Escherichia coli ATCC 25922 assessed as inhibition of bacterial growth incubated for 20 to 24 hrs by broth micro dilution method
[6] = system: Klebsiella pneumoniae; experiment: Antibacterial activity against NDM-1 expressing Klebsiella pneumoniae ATCC BAA 2470 assessed as inhibition of bacterial growth incubated for 20 to 24 hrs by broth micro dilution method
[7] = system: Staphylococcus aureus; experiment: Antibacterial activity against Staphylococcus aureus ATCC 29213 assessed as inhibition of bacterial growth incubated for 20 to 24 hrs by broth micro dilution method
[8] = system: Enterococcus faecium; experiment: Antibacterial activity against vancomycin resistant Enterococcus faecium ATCC 700221 assessed as inhibition of bacterial growth incubated for 20 to 24 hrs by broth micro dilution method
[9] = system: Acinetobacter baumannii; experiment: Antibacterial activity against multi-drug resistant Acinetobacter baumannii ATCC 19606 assessed as inhibition of bacterial growth incubated for 20 to 24 hrs by broth micro dilution method
[10] = system: Enterococcus faecium; experiment: Antibacterial activity against vancomycin-resistant Enterococcus faecium clinical isolate assessed as inhibition of bacterial growth incubated for 20 to 24 hrs by broth micro dilution method
[11] = system: Escherichia coli; experiment: Antibacterial activity against NDM-1 expressing Escherichia coli ATCC BAA2469 assessed as inhibition of bacterial growth incubated for 20 to 24 hrs by broth micro dilution method
[12] = system: Enterococcus faecium; experiment: Antibacterial activity against Enterococcus faecium ATCC 49624 assessed as inhibition of bacterial growth incubated for 20 to 24 hrs by broth micro dilution method
[13] = system: Staphylococcus epidermidis; experiment: Antibacterial activity against Staphylococcus epidermidis ATCC 12228 assessed as inhibition of bacterial growth incubated for 20 to 24 hrs by broth micro dilution method
[14] = system: Escherichia coli; experiment: Antibacterial activity against Escherichia coli ATCC 8739 assessed as inhibition of bacterial growth incubated for 20 to 24 hrs by broth micro dilution method
[15] = system: Staphylococcus aureus; experiment: Antibacterial activity against methicillin-resistant Staphylococcus aureus ATCC 43300 assessed as inhibition of bacterial growth incubated for 20 to 24 hrs by broth micro dilution method
[16] = system: Enterococcus faecalis; experiment: Antibacterial activity against Enterococcus faecalis ATCC 29212 assessed as inhibition of bacterial growth incubated for 20 to 24 hrs by broth micro dilution method
[17] = system: Pseudomonas aeruginosa; experiment: Antibacterial activity against […] Pseudomonas aeruginosa ATCC 27853 assessed as inhibition of bacterial growth incubated for 20 to 24 hrs by broth micro dilution method

Row | SMILES | MIC [1] [µg/mL] | MIC [2] [µg/mL] | MIC [3] [µg/mL] | MIC [4] [µg/mL] | MIC [5] [µg/mL] | MIC [6] [µg/mL] | MIC [7] [µg/mL] | MIC [8] [µg/mL] | MIC [9] [µg/mL] | MIC [10] [µg/mL] | MIC [11] [µg/mL] | MIC [12] [µg/mL] | MIC [13] [µg/mL] | MIC [14] [µg/mL] | MIC [15] [µg/mL] | MIC [16] [µg/mL] | MIC [17] [µg/mL]
1 | CN(C)c1ccc(/C=C/c2cc(NCCCc3ccccc3)c3ccccc3[n+]2C)cc1.[I-] | 4 | 4 | 2 | 2 | > 64 | > 64 | 2 | 4 | > 64 | 4 | > 64 | 4 | 2 | > 64 | 2 | 8 | > 64
2 | CN[C@H](CC(C)C)C(=O)N[C@H]1C(=O)N[C@@H](CC(N)=O)C(=O)N[C@H]2C(=O)N[C@H]3C(=O)N[C@H](C(=O)N[C@H](C(=O)O)c4cc(O)cc(O)c4-c4cc3ccc4O)[C@H](O)c3ccc(c(Cl)c3)Oc3cc2cc(c3O[C@@H]2O[C@H](CO)[C@@H](O)[C@H](O)[C@H]2O[C@H]2C[C@](C)(N)[C@H](O)[C@H](C)O2)Oc2ccc(cc2Cl)[C@H]1O [VANCOMYCIN] | 32 (≈ 22.1 µM) | 0.25 (≈ 0.173 µM) | – | – | > 64 | > 64 | – | 1020 (≈ 707 µM) | > 64 | > 64 | > 64 | – | > 64 | > 64 | – | 2 (≈ 1.38 µM) | > 64
3 | CN(C)c1ccc(/C=C/c2cc(N3CCCC3)[n+](C)c3ccccc23)cc1.[I-] | 8 | 16 | 16 | 16 | 16 | > 64 | 4 | 8 | > 64 | 16 | 64 | 16 | 2 | 32 | 16 | 64 | > 64
4 | CN(C)c1ccc(/C=C/c2cc(NCCCO)[n+](C)c3ccccc23)cc1.[I-] | 64 | 32 | 64 | 64 | > 64 | > 64 | > 64 | 64 | > 64 | 64 | > 64 | > 64 | 64 | > 64 | > 64 | > 64 | > 64
5 | CCCCNc1cc(/C=C/c2ccc(N(C)C)cc2)[n+](C)c2ccccc12.[I-] | 4 | 8 | 2 | 2 | 32 | > 64 | 4 | 4 | > 64 | 8 | > 64 | 16 | 2 | > 64 | 4 | 2 | > 64
6 | CN(C)c1ccc(/C=C/c2cc(N3CCOCC3)[n+](C)c3ccccc23)cc1.[I-] | 32 | 16 | > 64 | 64 | > 64 | > 64 | 32 | 32 | > 64 | > 64 | > 64 | 8 | 16 | > 64 | > 64 | > 64 | > 64
7 | CN(C)c1ccc(/C=C/c2ccc3ccccc3[n+]2C)cc1.[I-] | – | 64 | – | – | – | – | 16 | – | – | – | – | 8 | 16 | – | – | > 64 | –
8 | CN(C)c1ccc(/C=C/c2cc(N3CCCCC3)[n+](C)c3ccccc23)cc1.[I-] | 4 | 4 | 4 | 8 | 16 | > 64 | 2 | 2 | > 64 | 8 | 64 | 8 | 1 | 32 | 4 | 16 | > 64
9 | CCCNc1cc(/C=C/c2ccc(N(C)C)cc2)c2ccccc2[n+]1C.[I-] | 32 | 16 | 16 | > 64 | > 64 | > 64 | > 64 | 16 | > 64 | 16 | > 64 | 32 | 32 | > 64 | 32 | 64 | > 64
10 | CN(C)c1ccc(/C=C/c2cc(NCCCc3ccccc3)[n+](C)c3ccccc23)cc1.[I-] | 4 | 2 | 4 | 4 | > 64 | > 64 | 4 | 4 | > 64 | 4 | > 64 | 4 | 4 | > 64 | 4 | 4 | > 64
11 | CCCCNc1cc(/C=C/c2ccc(N(C)C)cc2)c2ccccc2[n+]1C.[I-] | 16 | 8 | 16 | 32 | > 64 | > 64 | 32 | 8 | > 64 | 8 | > 64 | 16 | 16 | > 64 | 16 | 32 | > 64
12 | CN(C)c1ccc(/C=C/c2cc(N3CCCC3)c3ccccc3[n+]2C)cc1.[I-] | 1 | 4 | 8 | 1 | 4 | > 64 | 1 | 2 | 32 | 4 | 64 | 4 | 1 | 16 | 2 | 2 | > 64
13 | CN(C)c1ccc(/C=C/c2cc[n+](C)c3ccccc23)cc1.[I-] | – | 64 | – | – | – | – | 16 | – | – | – | – | 16 | 16 | – | – | > 64 | –
14 | CN(C)c1ccc(/C=C/c2cc(NCCCO)c3ccccc3[n+]2C)cc1.[I-] | 16 | > 64 | 64 | 32 | > 64 | > 64 | 32 | 16 | > 64 | > 64 | > 64 | 8 | 8 | > 64 | 64 | 16 | > 64
15 | CC1(C)S[C@@H]2[C@H](NC(=O)[C@H](N)c3ccccc3)C(=O)N2[C@H]1C(=O)O [AMPICILLIN] | 0.125 (≈ 0.358 µM) | 4 (≈ 11.4 µM) | > 64 | 64 (≈ 183 µM) | – | > 64 | > 64 | 0.25 (≈ 0.715 µM) | > 64 | > 64 | > 64 | 2 (≈ 5.72 µM) | > 64 | 16 (≈ 45.8 µM) | > 64 | 1 (≈ 2.86 µM) | > 64
16 | CN(C)c1ccc(/C=C/c2cc(N3CCOCC3)c3ccccc3[n+]2C)cc1.[I-] | 32 | 32 | 64 | 64 | > 64 | > 64 | 32 | 16 | > 64 | 32 | > 64 | 8 | 16 | > 64 | 64 | > 64 | > 64
17 | O=C(O)c1cn(C2CC2)c2cc(N3CCNCC3)c(F)cc2c1=O [CIPROFLOXACIN] | 1 (≈ 3.02 µM) | 0.25 (≈ 0.754 µM) | > 64 | – | – | > 64 | 0.25 (≈ 0.754 µM) | > 64 | – | – | > 64 | 32 (≈ 96.6 µM) | 1 (≈ 3.02 µM) | < 0.125 | 2 (≈ 6.04 µM) | 4 (≈ 12.1 µM) | 1 (≈ 3.02 µM)
18 | CCCCCNc1cc(/C=C/c2ccc(N(C)C)cc2)c2ccccc2[n+]1C.[I-] | 8 | 8 | 8 | 8 | > 64 | > 64 | 8 | 8 | > 64 | 8 | > 64 | 8 | 8 | > 64 | 8 | 16 | > 64
